Literature values, collected in publication PMC7238799 (Pulmonary Circulation, 2020).
Where two headings read alike, the source gives them in different places.

What was measured:
[1] = cited from earlier work; for Half-life / Steady-state PTR: oral
[2] = tested on: prostacyclin (IP) receptor; settings: cited from earlier work
healthy male subjects = settings: from 400 µg BID up to 1600–1800 µg BID; cited from earlier work
[3] = BID oral administration of selexipag

CC#CCC(C)[C@H](O)/C=C/[C@@H]1[C@H]2c3cccc(CCCC(=O)O)c3O[C@H]2C[C@H]1O (mixture of isomers) [beraprost]
Half-life ([1]; administered four times daily): 0.75 h

CC(C)N(CCCCOCC(=O)O)c1cnc(-c2ccccc2)c(-c2ccccc2)n1 [ACT-333679]
Accumulation at steady-state [1, 3]: 1.02–1.27 fold
Mean steady-state PTR [1, 3]: 5.6–6.5
Effective half-life (EHL) ([1]; active metabolite of selexipag): 3 to 4 h
Terminal elimination half-life ([1]; active metabolite of selexipag): 6.2 to 13.5 h
Maximal cAMP stimulation (efficacy percentage relative to iloprost) [2]: 48%
Type of IP receptor agonism [2]: weak partial agonist

CC#CCC(C)[C@H](O)/C=C/[C@@H]1[C@H]2C/C(=C/CCCC(=O)O)C[C@H]2C[C@H]1O (stereo partly shown) [iloprost]
Maximal cAMP stimulation (efficacy percentage relative to iloprost) [2]: 100%
Type of IP receptor agonism [2]: full agonist

CC(C)N(CCCCOCC(=O)NS(C)(=O)=O)c1cnc(-c2ccccc2)c(-c2ccccc2)n1 [selexipag]
Treated subjects achieving full dose escalation (healthy male subjects): 67–81%

CCCCC[C@H](O)CC[C@@H]1[C@H]2Cc3cccc(OCC(=O)O)c3C[C@H]2C[C@H]1O [treprostinil]
Steady-state PTR ([1]; BID dosing): 7.0
Steady-state PTR ([1]; TID dosing): 2.5
Half-life ([1]; administered two or three times daily): 3 to 4 h
